Data published in ChEMBL document CHEMBL4219225, “Practical application of ligand efficiency metrics in lead optimisation” (Bioorg Med Chem, 2018).
pEC50, pIC50: −log10 of the molar value. In brackets after ≈: the same amount, converted by molar mass.

How the values were obtained:
[1] = Apparent permeability in MDCK cells; format: ADME, cell-based, Canis lupus familiaris; conditions: dog
[2] = Solubility of the compound at pH 7.4; format: physicochemical; conditions: buffer
[3] = target: T1, Glucose-dependent insulinotropic receptor (Homo sapiens, UniProt Q8TDV5); assay: Agonist activity at GPR119 (unknown origin); format: functional
T1 sequence (Q8TDV5 whole entry): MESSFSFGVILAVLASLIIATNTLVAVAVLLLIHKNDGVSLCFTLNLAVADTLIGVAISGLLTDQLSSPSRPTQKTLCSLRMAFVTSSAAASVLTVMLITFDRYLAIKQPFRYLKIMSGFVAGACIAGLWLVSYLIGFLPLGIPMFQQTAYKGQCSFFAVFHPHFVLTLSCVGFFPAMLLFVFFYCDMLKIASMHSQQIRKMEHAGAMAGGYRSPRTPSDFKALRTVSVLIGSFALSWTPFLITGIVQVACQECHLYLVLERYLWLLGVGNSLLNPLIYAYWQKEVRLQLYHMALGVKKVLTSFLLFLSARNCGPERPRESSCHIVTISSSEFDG

[4] = target: Voltage-gated inwardly rectifying potassium channel KCNH2 (Homo sapiens, UniProt Q12809); assay: Inhibition of human ERG
Sequence of Voltage-gated inwardly rectifying potassium channel KCNH2 (Q12809 whole entry): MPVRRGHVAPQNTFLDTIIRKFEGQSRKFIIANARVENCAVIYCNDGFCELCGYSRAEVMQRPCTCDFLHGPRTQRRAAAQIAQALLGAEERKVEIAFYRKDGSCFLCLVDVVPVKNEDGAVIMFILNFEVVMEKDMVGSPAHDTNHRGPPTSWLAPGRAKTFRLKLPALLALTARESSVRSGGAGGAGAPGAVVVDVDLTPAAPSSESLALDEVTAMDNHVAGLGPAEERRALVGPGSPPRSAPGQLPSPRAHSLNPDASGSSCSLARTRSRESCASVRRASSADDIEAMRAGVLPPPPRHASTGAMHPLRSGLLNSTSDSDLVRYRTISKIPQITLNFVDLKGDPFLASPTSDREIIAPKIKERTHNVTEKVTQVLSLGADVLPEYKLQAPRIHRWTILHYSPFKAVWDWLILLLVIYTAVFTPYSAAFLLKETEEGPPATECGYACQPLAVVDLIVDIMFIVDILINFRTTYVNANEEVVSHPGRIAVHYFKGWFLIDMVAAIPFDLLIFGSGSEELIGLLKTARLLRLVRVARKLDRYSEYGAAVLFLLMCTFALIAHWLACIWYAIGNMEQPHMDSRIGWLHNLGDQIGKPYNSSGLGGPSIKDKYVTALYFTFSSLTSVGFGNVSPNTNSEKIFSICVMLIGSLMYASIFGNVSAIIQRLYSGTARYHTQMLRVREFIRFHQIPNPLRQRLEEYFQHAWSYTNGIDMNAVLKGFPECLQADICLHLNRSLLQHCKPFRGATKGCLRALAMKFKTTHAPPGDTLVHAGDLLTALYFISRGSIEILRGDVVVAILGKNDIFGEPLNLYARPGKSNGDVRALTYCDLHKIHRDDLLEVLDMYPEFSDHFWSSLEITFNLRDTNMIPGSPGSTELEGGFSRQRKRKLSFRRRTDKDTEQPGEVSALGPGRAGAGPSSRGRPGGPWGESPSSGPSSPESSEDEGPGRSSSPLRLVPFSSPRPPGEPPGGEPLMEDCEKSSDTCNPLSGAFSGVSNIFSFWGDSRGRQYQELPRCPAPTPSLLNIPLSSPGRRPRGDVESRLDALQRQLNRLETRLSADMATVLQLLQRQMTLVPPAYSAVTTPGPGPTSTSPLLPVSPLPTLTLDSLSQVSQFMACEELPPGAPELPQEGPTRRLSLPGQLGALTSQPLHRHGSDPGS

| Compound | Papp [1] [×10⁻⁶ cm/s] | solubility [2] [µM] | pEC50 [3] | pIC50 [4] |
| --- | --- | --- | --- | --- |
| Cc1nc(C)c(-c2ccc(-c3ccc([C@H](C)C(=O)O)cc3Cl)c(F)c2)nc1C(N)=O | 14 | – | – | – |
| Cc1nc(C)c(-c2ccc(-c3ccc(CC(=O)O)cc3)c(Cl)c2)nc1C(N)=O | 7.4 | – | – | – |
| N#Cc1cnccc1COc1cnc(N2CCN(c3noc(C(F)(F)F)n3)CC2)nc1 | – | 3.1 (≈ 1.34 µg/mL) | 8.70 | 5.20 |
| N#Cc1cnccc1COc1cnc(N2CCN(c3nc(C(F)(F)F)no3)CC2)nc1 | – | 4800 (≈ 2080 µg/mL) | 8.30 | 5.20 |
| N#Cc1cnccc1COc1cnc(N2CCN(c3nnc(C(F)(F)F)o3)CC2)nc1 | – | 120 (≈ 51.9 µg/mL) | 7.60 | 4.70 |
